Experimental data reported in patent US20110294741A1, “USE OF COMPOUNDS IN THE TREATMENT OF TAU-INDUCED CYTOTOXICITIES” (Bioalvo-Servicos, Investigacao e Desenvolvimento em …, priority 2008, published 2011).

Legend:
[1] = Partition of peptide into lipid bilayer vesicles (fluorescence titration); format: physicochemical
Source text: Vesicles of zwiterionic lipid, POPC ([…]), and POPC with negative lipid, POPG in different proportions: 80:20 ▪, 50:50 and 30:70 ? until 100% POPG ( ? ). The unit of 1/1 w on the y axis is the ratio between fluorescence intensities.
Vesicles of zwiterionic lipid, POPC, and POPC with negative lipid, POPG, in the proportion 50 POPC: 50 POPG.
As can be observed, the fluorescence intensity of the phenolic moiety increases due to the insertion in the apolar environment created by the lipids. Negative lipids (other symbols) inhibit the interaction due to charge repulsion. […] KTP-NH2 is therefore suitable for i.v. or i.p. administration. KTP-NH2 diffuses through the blood stream, reaches the BBB, and translocates.
In order to confirm that these plasma-stable KTP-NH2 derivatives maintained their lipophilicity, their potential interaction with human cell membranes was assessed. Again, we performed biophysical studies using fluorescent methodologies (Santos N. C., Prieto M. and Castanho M. A. 2003. Quantifying molecular partition into model systems of biomembranes: an emphasis on optical spectroscopic methods. Biochim Biophys Acta 1612: 123-135.).

rats (Wister, male) = experiment: Increasing-temperature hot-plate test; format: in vivo, rat; details: i.p. and p.o. administration
Protocol: Kyotorphin is an endogenous analgesic agent in the brain. However, Kyotorphin can not be used as an analgesic due to its inability to cross the blood-brain-barrier. […] In addition, KTP-NH2 efficacy after oral administration was also observed.
In vivo behavioural anti-nociception tests were carried out in rats (Wister, male). Unless otherwise stated, compounds were administered by intra-peritoneal (i.p.) injection. For most assays, the Tail Flick and the Hot Plate tests were used.
The hot-plate test (Eddy N. B and Leimbach D. 1953. Synthetic analgesics II. Dithienylbutenyl and dithienylbutylamines J. Pharmacol. Exp. Ther. 45: 339) evaluates a supraspinally integrated response in the form of thermal pain reflexes due to footpad contact with a heated surface. During the experiments, the animal is confined in a removable clear acrylic compartment where the latency time to the first hind paw or/and jumping responses are measured. […] The response is the licking of the hindpaw, and the corresponding plate temperature represents the recorded nociceptive end-point. […]
A KTP derivative was used for comparative purposes, as control. Both drugs were injected i.p. and p.o. and rats were analysed for the Hot Plate and Tail Flick tests.

[2] = Cytotoxicity in human hepatocytes (LDH release and ATP); format: cell-based; details: LDH and ATP determination, read-out: LC50 (the source's name)
Protocol: Cytotoxicity was assessed with a cell-based assay using human hepatocytes. Cell death was assayed by quantifying plasma membrane damage or rupture through measurement of the release of lactate dehydrogenase (LDH) (Legrand, C. et al. 1992. Lactate dehydrogenase (LDH) activity of the cultured eukaryotic cells as marker of the number of dead cells in the medium. J. Biotechnol. 25: 231-243), a stable cytoplasmic enzyme present in most cells. Determination of cell viability was performed by quantifying ATP (Cree I. A and Andreotti P. E. 1997. Measurement of cytotoxicity by ATP-based luminescence assay in primary cell cultures and cell lines. Toxicology in vitro, 11: 553-556), a marker for cell viability because it is present in all metabolically active cells and the concentration declines very rapidly when the cells undergo necrosis or apoptosis.

Plasma stability = format: in vitro ADME, human; details: after 1 h incubation
Source text: Drugs are exposed in plasma to enzymatic processes (proteinases, esterases), they can undergo intramolecular rearrangement or bind irreversibly (covalently) to proteins. Compounds which are not stable in plasma have inherent liability as drug candidates, as they are less capable to reach a sufficient concentration at their site of pharmacological activity.

## N=C(N)NCCCC(NC(=O)C(N)Cc1ccc(O)cc1)C(N)=O [KTP-NH2, L-Tyr-L-Arg-NH2]
[1]; POPC membranes, KTP-OH value from Lopes et al 2006
  partition coefficient for POPC, compared with KTP-OH: significantly superior to the one of KTP-OH
[1]; POPC vesicles, numerical treatment of fluorescence titration data
  local concentration in the model membrane of mammals versus surrounding bulk aqueous phase: approx. 2,500 fold
Rats (Wister, male)
  anti-nociceptive response, temperature increase tolerated in the paw (Hot Plate): clear anti-nociceptive response
[2]
  CC50: > 125 µM
Plasma stability
  stability in human plasma: 14-21%
